This is an account of results in patent US20160341718A1, “METHODS FOR TESTING T CELL PRIMING EFFICACY IN A SUBJECT” (priority 2014, published 2016).

The assay relates to naïve ELA-specific CD8+ T cell precursors in HLA-A2+ PBMCs. The experiment in a line: In vitro priming of ELA-specific CD8+ T cells from unfractionated PBMCs, ELA/HLA-A2 tetramer enumeration and CD45RA/CCR7 phenotype. Type of assay: cell-based, human. As to conditions: day 10 after priming of HLA-A2+ PBMCs with ELA-20 1 μM.

From the text: Naïve precursors specific for the HLA-A*02:01-restricted epitope [sequence] […] The frequency, phenotype and functional profiling of ELA-specific CD8+ T cells were typically determined on day 10 or 11. Purified naïve and memory CD8+ T cell subsets for priming experiments were obtained using T Cell Enrichment Column Kits (R&D Systems).
ELA-specific CD8^+ T cells were quantified by flow cytometry using fluorochrome-labeled ELA/HLA-A*02:01 tetramers (FIG. 2A). […] For this purpose, we mixed purified naïve or memory CD8^+ T cells separately with autologous CD8-depleted PBMCs to initiate priming (FIG. 2B).
Moreover, to ensure optimal immunogenicity, we used the heteroclitic sequence [sequence]

For lipopolysaccharide [TLR4L], the “magnitude of primed/expanded ELA tetramer+ CD8+ T cells” value was “only marginal effects”.
